Active and inactive are the calls of the source.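 How the source made its calls: active means compounds giving half or more protection of infected cells from virus-caused growth loss, again on retest; inactive means the rest.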

This experiment has as its system CEM cells HIV-1 protection, formazan growth assay. Put plainly: NCI AIDS Antiviral Assay. The settings on record: for IC50: measured here: growth of uninfected CEM cells. As for the experimental part:
The ability of compounds to protect human CEM cells from HIV-1 infection is measured as a screen for new compounds capable of inhibiting the HIV virus. Five concentrations of drug were tested on uninfected and infected cells and cell growth was measured using a soluble formazan assay. […] Compounds that provided at least 50% protection were retested. Compounds that provided at least 50% protection on retest were listed as moderately active. Compounds that reproducibly provided 100% protection were listed as confirmed active. […] Note that the inability to provide protection could be due to toxicity.

A word on the EC50: it is the midpoint of the concentration-response curve. By IC50 is commonly meant the concentration at which inhibition is half-maximal. The low end stands for higher potency, the high end for lower potency. Regarding `CCOC(=O)C(=O)CC1=NC2CCCCC2N(C)C1=O` (stereo unspecified), the EC50 is > 200 µM and the concentration for half-maximal inhibition (IC50) is > 200 µM.
Regarding `O=C(O)CCCCCCC[C@H]1S[C@H]1CCCCCCO`, the outcome was inactive.
Take `CC(/C=N/NC1=NCCCCN1)=N\NC1=NCCCCN1`: the EC50 is > 200 µM and the IC50 turned out to be 120 µM.
Turning to `Nn1c(-c2cccc(Cl)c2)nc2ccccc2c1=O`, the result was inactive.
Turning to `CC(C)(C)C1=CC(=N/N=c2\scc(-c3ccccc3)n2Cc2ccccc2)C=C(C(C)(C)C)C1=O`, the EC50 was > 5.62 µM and the IC50 is > 5.62 µM.
Consider `OC1(c2ccccc2)OC(C#Cc2ccccc2)(c2ccccc2)c2ccccc21` (stereo unspecified), for which the outcome was inactive.
With `C=C1C(=O)[C@]23C[C@H]1CC(O)[C@H]2C1(CCC[C@@](C)(COC(C)=O)C1C=O)COC3=O` (stereo partly specified), the outcome was inactive.
`Oc1c(OCc2nnc(CCCCCCCCc3nnc(COc4ccc5ccccc5c4O)o3)o2)ccc2ccccc12`: the EC50 is > 200 µM and the 50% inhibitory concentration (IC50) was > 200 µM.
For the molecule `O=S(=O)([O-])[O-].O=c1[nH]cnc2[nH]ncc12.O=c1[nH]cnc2[nH]ncc12.[Zn+2]`, the EC50 was > 209 µM and the IC50 is 155 µM.
Turning to `O=NN(CCCl)C(=O)NC1CCCCC1`, the EC50 was > 1070 µM and the IC50 was 35.5 µM.
The like results for `O=C1Nc2ccccc2C12CCNC2Cc1ccccc1` (stereo unspecified) were, in that order, > 794 µM and 263 µM.
For the molecule `N#C/C(=C\N1CCNC1=S)c1nc2ccccc2s1`, the EC50 is > 200 µM and the IC50 is > 200 µM.
On to `Cn1c(=O)c(CC(C(=O)O)C(=O)O)nc2ccccc21`, for which the EC50 was > 200 µM and the 50% inhibitory concentration (IC50) was > 200 µM.
Regarding `CCNC(=O)OCc1cnc(C)c(OC(=O)NCC)c1COC(=O)NCC`, the EC50 was > 200 µM and the 50% inhibitory concentration (IC50) is 31.6 µM.
For `NC(=O)C1N=NSC1NC(=O)c1ccc([N+](=O)[O-])cc1` (stereo unspecified), in that order: > 200 µM and 26.9 µM.
The like results for `C#CCN(Cc1ccc2nc(-c3ccccc3)c(Cl)nc2c1)c1cc(OC)c(OC)c(OC)c1` were, in that order, > 7.94 µM and > 7.94 µM.
The like results for `NC(=O)c1ccc(NN=O)nc1` were, in that order, > 200 µM and > 200 µM.
As to `O=c1nc(-c2ccccc2)c2c3c(cccn13)CCC2`, the result was inactive.
As to `COC(=O)c1c(-c2ccccc2)c(-c2ccccc2)[nH]c(=O)c1C#N`, the EC50 was > 200 µM and the half-maximal inhibitory concentration (IC50) is > 200 µM.
Regarding `CC1CC(=O)NC2CC1C2(C)C` (stereo unspecified), the EC50 is > 1480 µM and the IC50 was > 1480 µM.
As for `COc1cc(-c2oc(C=Nc3ccccc3)c([N+](=O)[O-])c2-c2ccc(O)c(OC)c2)ccc1O`, the EC50 is > 200 µM and the half-maximal inhibitory concentration (IC50) was 7.59 µM.
Consider `O=Nc1ccc(O)c2ncccc12`, for which the outcome was inactive.
The same measure, in the same setting: the result for `CC1CN=C(N(C(=O)Nc2ccc(F)c(Cl)c2)c2ccccc2)S1` (stereo unspecified) reads “inactive”; that for `Cc1ccc(C(=O)O/N=C2/CCCCC2CN(C)C)cc1` (stereo unspecified), “inactive”.
Take `Oc1[nH]c2ccccc2c1N=Nc1nc(-c2ccc(Br)cc2)cs1`: the EC50 was > 200 µM and the IC50 amounted to 120 µM.
In the case of `CCOC(=O)c1cnn2c1ncc1c(=O)n(NC(N)=O)ccc12`, the EC50 was > 200 µM and the IC50 is > 200 µM.
`O=C(COc1ccccc1Cl)N1N=C(c2ccc(Cl)cc2)CC1(O)c1ccccc1` (stereo unspecified): the EC50 was > 4.57 µM and the half-inhibitory concentration (IC50) was > 4.57 µM.
Take `COC(=O)[C@H](COC(C)(C)C)NC(=O)N[C@H](C)c1ccccc1`: the EC50 was > 200 µM and the IC50 is > 200 µM.
Take `C/C(=C\C=C\C(C)C)C1CCC(C)(NC=O)CC1` (stereo unspecified): the outcome was inactive.
Consider `Cc1c(C)c2c(c3c1OC(C)(C)CC3)CCC(C)(C)O2`, for which the EC50 is > 135 µM and the concentration for half-maximal inhibition (IC50) was found to be 74.1 µM.
For `Cc1nc2sccn2c1C(=O)N/N=C1\SCC(=O)N1C`, in that order: > 427 µM and > 427 µM.
The like results for `CC(=O)NNC=N/C(C#N)=C(\N)C#N` were, in that order, > 200 µM and > 200 µM.
For `N#Cc1c(N)c(C(=O)Nc2ccccc2)n2c1CCCC2`, in that order: > 200 µM and > 200 µM.
In the case of `C=C1C2CCC3C(CCC4C35CCC[C@]4(C)CN3CCO[C@H]35)(C2)[C@@H]1O` (stereo partly specified), the outcome was inactive.
With `CC(O)CN(CC(C)O)N(CC(C)O)CC(C)O` (stereo unspecified), the EC50 is > 955 µM and the IC50 came out at 219 µM.
For `Cn1ccc(C(=O)NCCN(CCNC(=O)c2ccn(C)c(=O)c2O)CCNC(=O)c2cccc(=O)n2O)c(O)c1=O`, in that order: > 200 µM and > 200 µM.
The like results for `O=C(O)Cc1ccc(-c2cn3c(n2)sc2ccccc23)cc1` were, in that order, > 200 µM and > 200 µM.
In the case of `Cc1ccc(S(=O)(=O)c2ccc(O)cc2)cc1`, the EC50 is > 200 µM and the half-maximal inhibitory concentration (IC50) worked out at 129 µM.
The like results for `Cc1c2ccccc2nc(CSC#N)[n+]1[O-]` were, in that order, > 200 µM and 36.3 µM.
For `Cc1cc(C)c(S(=O)(=O)N(CCCCCN)OCCCN)c(C)c1`, in that order: > 200 µM and 30.2 µM.
Take `Nc1nc2cc(Cl)ccc2n1N`: the EC50 was > 200 µM and the IC50 is > 200 µM.
Take `Cc1ccc(C)c(N2C(=O)C(=O)C(c3nc4ccccc4s3)C(=O)C2=O)c1`: the result was inactive.
Consider `Cc1ccc(S(=O)(=O)N/N=C2/CC3CCC2C3)cc1` (stereo unspecified), for which the EC50 was > 200 µM and the 50% inhibitory concentration (IC50) is > 200 µM.
For the molecule `Cc1ccc(/C=C2\CN(C)CC3=C2OC(N)=C(C#N)C3c2ccc(C)cc2)cc1` (stereo unspecified), the EC50 is > 200 µM and the IC50 came to 10.2 µM.
The like results for `O=C1c2ccccc2C(=O)c2nc3c(O)cccc3cc21` were, in that order, > 19.1 µM and > 19.1 µM.
On to `Cc1ccsc1C(=S)Nc1ccc(Cl)c(/C=N/OC(C)C)c1`, for which the EC50 was 0.0575 µM and the concentration for half-maximal inhibition (IC50) was 10.7 µM.
The like results for `COC1OCC(SC(=O)c2ccccc2)C(O)C1O` (stereo unspecified) were, in that order, > 200 µM and 141 µM.
The like results for `CCOC(=O)CNC(=O)C(CSSCC(NC(=O)OCc1ccccc1)C(=O)O)NC(=O)OCc1ccccc1` (stereo unspecified) were, in that order, > 200 µM and > 200 µM.
For `C=CCC(C(=O)Nc1cccc2[nH]cnc12)C(=O)OCC` (stereo unspecified), in that order: > 200 µM and 195 µM.
As for `Nc1ncc(C[P+](c2ccccc2)(c2ccccc2)c2ccccc2)c(N)n1`, the EC50 is > 200 µM and the IC50 was > 200 µM.
`COc1ccc2c(n1)Sc1c(Cl)nc(N)nc1N2`: the EC50 was > 158 µM and the 50% inhibitory concentration (IC50) is > 158 µM.
For the molecule `CCC1C(c2cc(OC)c(OC)c(OC)c2)c2cc3c(cc2OC1N1CCCC1)OCO3` (stereo unspecified), the EC50 is > 200 µM and the IC50 was 1.12 µM.
In the case of `Nc1c(F)c(F)c2c(c1F)N(CCCCCl)c1ccccc1S2`, the EC50 is > 200 µM and the half-maximal inhibitory concentration (IC50) was 21.9 µM.
Turning to `COc1cc2c[n+]3ccc4cc(OC)c(OC)cc4c3cc2cc1O`, the result was inactive.
On to `COc1cc(C(=O)CC2OC(=O)C(Cl)=C2Cl)ccc1Cl` (stereo unspecified), for which the EC50 is > 741 µM and the 50% inhibitory concentration (IC50) came out at 145 µM.
Regarding `O=c1[nH]c2ccccc2nc1/C=C/n1c(=S)[nH]c2ccccc21`, the EC50 was > 200 µM and the IC50 is > 200 µM.
Consider `COc1cc(/C=C/C(=O)OC[C@H](Br)[C@H](OC(C)=O)c2ccc3c(c2)OCO3)cc(OC)c1OC`, for which the EC50 was > 200 µM and the half-maximal inhibitory concentration (IC50) was determined as 47.9 µM.
For `OC1CCN2Cc3ccccc3N=C12` (stereo unspecified), in that order: > 200 µM and > 200 µM.
The like results for `CSc1nc(Br)nc2c1ncn2C1CC(Oc2ccc(C)cc2)C(COc2ccc(C)cc2)O1` (stereo unspecified) were, in that order, > 200 µM and 79.4 µM.
The like results for `COC(=O)c1c(C(=O)OC)c2c(-c3ccccc3)cc3cccc1n32` were, in that order, > 8.13 µM and > 8.13 µM.
For the molecule `O=C(/C=C\c1cccc2ccccc12)c1ccc(F)cc1`, the EC50 is > 7.24 µM and the IC50 was > 7.24 µM.
As to `CCN=C(NNc1ccc([N+](=O)[O-])cc1)P(=O)(OC(C)C)OC(C)C`, the EC50 was > 36.3 µM and the IC50 is > 36.3 µM.
Regarding `C(=Nc1cnc2ccccc2c1)c1ccc2ccccc2n1`, the EC50 was > 35.5 µM and the half-inhibitory concentration (IC50) came to 19.1 µM.
Regarding `CC1=C(C(=O)Nc2ccc(Cl)c(Cl)c2)C(c2ccco2)C(C(=O)Nc2ccc(Cl)c(Cl)c2)=C(C)N1`, the EC50 was > 33.9 µM and the IC50 turned out to be 13.8 µM.
The like results for `O=CC[C@]12CC(=O)OC(C=CC13OCCO3)C2` were, in that order, > 200 µM and > 200 µM.
The like results for `Cc1ccc(S(=O)(=O)c2c(O)c3ccccc3n(C)c2=O)cc1` were, in that order, > 200 µM and > 200 µM.
Regarding `NNc1ncnc2c1ncn2C1OC(CO)CC1F` (stereo unspecified), the concentration giving a half-maximal response (EC50) is > 148 µM and the IC50 is > 148 µM.
With `CCc1ccccc1C1(Br)C(=O)c2ccccc2C1=O`, the EC50 was > 200 µM and the IC50 came to 45.7 µM.
For `CC(NC(=O)OCc1ccccc1)C(=O)NC(C(=O)O)C(C)C` (stereo unspecified), in that order: > 776 µM and > 776 µM.
The like results for `COc1ccc(C2SC(N)=Nc3c2c(C)nn3C(=O)c2ccccc2O)cc1OC` (stereo unspecified) were, in that order, > 20 µM and 0.617 µM.
For `COC(=O)C[P+](c1ccccc1)(c1ccccc1)c1ccccc1`, in that order: > 200 µM and > 200 µM.
For the molecule `Cc1nn(C(=O)c2ccccc2O)c2c1C(c1ccco1)SC(N)=N2` (stereo unspecified), the EC50 was > 20 µM and the half-maximal inhibitory concentration (IC50) is 1.23 µM.
For the molecule `COc1cccc(NC(=O)CSc2nnc(-c3ccc(N=Cc4ccc(Cl)cc4)cc3)o2)c1`, the EC50 is > 75.9 µM and the IC50 is 25.1 µM.
For the molecule `Cc1ccc(OCC2OC(n3cnc4nc(Cl)nc(Cl)c43)CC2Oc2ccc(C)cc2)cc1` (stereo unspecified), the EC50 is > 200 µM and the IC50 was 1.48 µM.

The record behind these values is PubChem BioAssay AID179 (DTP/NCI, 2004).
